Measured values as given in EP0187956A2, “Pharmaceutical composition for the treatment of defects of the gastrointestinal mucous membrane” (BOEHRINGER INGELHEIM KG, priority 1984, dated 1986).

Columns and labels:
[1] = test system: Durch Ethanol verursachte Magengeschwüre; assay: Ethanol-induced gastric ulcers in fasted female rats; format: in vivo, Ratten; conditions: for ED50: Rattus norvegicus, po, 30 min before 0,7 ml absolute ethanol, dose protecting 50 % of the animals
Protocol: (§1) Die mucoprotektive Wirkung auf den Gastrointestinaltrakt verschiedener Verbindungen wurde im Vergleich zu dem bekannten Antiulcusmittel Carbenoxolone an weiblichen Ratten getestet, die für 24 Stunden vor Beginn des Tests fasteten. Diese Tiere wurden den folgenden Tests unterworfen:
(§2) Gruppen von 10 Ratten erhielten abgestufte Dosen der zu untersuchenden Verbindungen oral mittels Schlundsonde; die Verbindungen waren in 0,2 % Methocel suspendiert. Nach 30 Minuten erhielten die Tiere 0,7 ml absolutes Ethanol. 30 Minuten später wurden die Tiere getötet, der Magen entfernt, entlang der großen Curvatur geöffnet und von einem neutralen Beobachter untersucht. Einem Magengeschwür entsprechende Schädigungen wurden auch nach ihrer Schwere beurteilt, aber ihre Häufigkeit (in %) diente als Basis für die Berechnung des prozentualen Schutzes. Die ED50 ist diejenige Dosis einer Verbindung, die 50 % der Tiere schützt; sie wird ausgedrückt durch die Relation Schutz:Dosis.

[2] = test system: Durch Natronlauge verursachte Magengeschwüre; assay: Sodium hydroxide (0,2 N)-induced gastric ulcers in fasted female rats; format: in vivo, Ratten; conditions: for ED50: Rattus norvegicus, po, 1 h, p.o., 0,2 N sodium hydroxide as ulcerogen, animals killed 60 min after it
Protocol: as §1, §2
Der Test verlief in gleicher Weise wie der unter 1. beschriebene. Anstelle von Ethanol wurde 0,2 N Natronlauge als Ulcus verursachendes Agens gewählt und die Tiere 60 Minuten nach dessen Gabe getötet. Die ED50 wurde, wie oben angegeben, bestimmt.

[3] = test system: Durch Ethanol verursachte Magengeschwüre bei Ratten, die mit Indomethacin und Acetylsalicylsäure vorbehandelt worden waren; assay: Ethanol-induced gastric ulcers in rats pretreated with indomethacin or acetylsalicylic acid (suppression of prostaglandin synthesis); format: in vivo; conditions: 30 mg/kg p.o.
Protocol: as §1, §2
Es ist bekannt, daß Prostaglandine einen cytoprotektiven Effekt haben. Weiter ist bekannt, daß Prostaglandine eine antiulcerogene Wirkung haben. Durch eine Hemmung der Prostaglandin-Biosynthese, z.B. durch Acetylsalicylsäure oder Indomethacin, wird die antiulceregene Wirkung unterdrückt.
Gruppen von je 10 Ratten wurden entweder mit Indomethacin (3 mg/kg s.c.) oder Acetylsalicylsäure (10 mg/kg) vorbehandelt und nach 30 bis 60 Minuten die Testsubstanz verabreicht. Dann wurde ein durch Ethanol verursachtes Magengeschwür gesetzt und, wie unter 1. beschrieben, weitergearbeitet.

CC(CS)C(=O)N1CCc2sccc2C1C(=O)O [C, 1-(3-Mercapto-2-(R,S)-methylpropanoyl)-4,5,6,7-tetrahydro-thieno-[3,2-c]pyridin-4-(R,S)-carbonsäure]
ED50 [1]: 6 mg/kg

CC(CS)C(=O)N1CCC[C@@H]1C(=O)O (stereo partly drawn) [Captopril, D-2-Methyl-3-mercaptopropanoyl-L-prolin, reference compound]
% Schutz (% Tier ohne Magengeschwüre) ([1]; 30 mg/kg p.o.): 5%
% Schutz (% Tier ohne Magengeschwüre) ([1]; 55 mg/kg p.o.): 30%
% Schutz (% Tier ohne Magengeschwüre) ([1]; 100 mg/kg p.o.): 70%
ED50 [1]: 74.4 mg/kg

CC1(C)[C@@H](OC(=O)CCC(=O)O)CC[C@]2(C)[C@H]3C(=O)C=C4[C@@H]5C[C@@](C)(C(=O)O)CC[C@]5(C)CC[C@@]4(C)[C@]3(C)CC[C@@H]12 [Carbenoxolone, reference compound]
%Schutz-wirkung ([2]; 100 mg/kg p.o.): 33%
%Schutz-wirkung ([2]; 170 mg/kg p.o.): 70%
%Schutz-wirkung ([2]; 300 mg/kg p.o.): 80%
ED50 [2]: 132 mg/kg
% Schutz (% Tier ohne Magengeschwüre) ([1]; 30 mg/kg p.o.): 10%
% Schutz (% Tier ohne Magengeschwüre) ([1]; 100 mg/kg p.o.): 60%
% Schutz (% Tier ohne Magengeschwüre) ([1]; 300 mg/kg p.o.): 90%
ED50 [1]: 89 mg/kg

C[C@@H](CSC(C[N+](=O)[O-])c1ccccc1)C(=O)N1CCC[C@H]1C(=O)O (stereo partly drawn) [D, 1-[3-(1-Phenyl-2-nitro-äthylthio)-2-R-methylpropanoyl]-L-prolin]
ED50 [1]: 0.6 mg/kg

CCOC(=O)[C@H](CCc1ccccc1)N[C@@H](C)C(=O)N1CCc2ccsc2[C@H]1C(=O)O [E, N-[N-1-(S-Ethoxycarbonyl-3-phenylpropyl)-2-S-alanyl]-4,5,6,7-tetrahydro-thieno[2,3-c]pyridin-7-R-carbonsäure]
ED50 [1]: 12 mg/kg

CC(=O)SC[C@@H](C)C(=O)N1CCc2sccc2C1C(=O)O (stereo partly shown) [F]
ED50 [1]: 3 mg/kg

C[C@H](CS)C(=O)N1CCC[C@H]1C(=O)OCOC(=O)C(C)(C)C [G, 1-(3-Mercapto-Z-D-methylpropanoyl)-L-prolin-pivaloyloxymethylester]
%Schutz-wirkung ([2]; 3 mg/kg p.o.): 10%
%Schutz-wirkung ([2]; 10 mg/kg p.o.): 39%
%Schutz-wirkung ([2]; 17 mg/kg p.o.): 70%
%Schutz-wirkung ([2]; 30 mg/kg p.o.): 80%
ED50 [2]: 11.7 mg/kg
% Schutzwirkung ([3]; pretreatment: Acetylsalicylsäure 10 mg/kg p.o., 60 min before ethanol): 10%
% Schutzwirkung ([3]; pretreatment: Indomethacin 3 mg/kg s.c., 30 min before ethanol): 40%
% Schutzwirkung ([3]; pretreatment: saline (control)): 100%
% Schutz (% Tier ohne Magengeschwüre) ([1]; 3 mg/kg p.o.): 30%
% Schutz (% Tier ohne Magengeschwüre) ([1]; 10 mg/kg p.o.): 50%
% Schutz (% Tier ohne Magengeschwüre) ([1]; 30 mg/kg p.o.): 40%
ED50 [1]: 4 mg/kg
